Source: the NIST ThermoML archive (doi:10.1021/je501141e)

Assay: xn = mol fraction of the nth substance listed
Settings: 100 kPa, Liquid; for viscosity: Concentric cylinders viscometry; for speed of sound: Frequency=200 MHz, Sing-around technique in a fixed-path interferometer; for mass density: Vibrating tube method

CC(CC(C)(C)C)CC(C)(C)CC(C)(C)C (stereo not given) [2,2,4,4,6,8,8-heptamethylnonane] + CC(CC(C)(C)C)CC(C)(C)C
Settings | mass density [kg/m3] | speed of sound [m/s] | viscosity [mPa·s]
293.15 K, x1 = 0.0772 | 749.05 | 1211.7 | 1.43
293.15 K, x1 = 0.1584 | 752.89 | 1219.4 | 1.55
293.15 K, x1 = 0.2439 | 756.76 | 1226.7 | 1.7
293.15 K, x1 = 0.334 | 760.65 | 1234.8 | 1.87
293.15 K, x1 = 0.4293 | 764.68 | 1242.9 | 2.08
293.15 K, x1 = 0.5302 | 768.56 | 1251.1 | 2.29
293.15 K, x1 = 0.6371 | 772.47 | 1259.6 | 2.56
293.15 K, x1 = 0.7506 | 776.56 | 1268.2 | 2.86
293.15 K, x1 = 0.8711 | 780.52 | 1276.9 | 3.25
293.15 K, x1 = 1 | – | – | 3.71
303.15 K, x1 = 0.0772 | 741.82 | 1173 | 1.2
303.15 K, x1 = 0.1584 | 745.73 | 1180.9 | 1.3
303.15 K, x1 = 0.2439 | 749.65 | 1188.4 | 1.42
303.15 K, x1 = 0.334 | 753.6 | 1196.6 | 1.55
303.15 K, x1 = 0.4293 | 757.69 | 1205 | 1.71
303.15 K, x1 = 0.5302 | 761.62 | 1213.3 | 1.88
303.15 K, x1 = 0.6371 | 765.59 | 1221.9 | 2.08
303.15 K, x1 = 0.7506 | 769.74 | 1230.8 | 2.31
303.15 K, x1 = 0.8711 | 773.76 | 1239.6 | 2.59
303.15 K, x1 = 1 | – | – | 2.93
313.15 K, x1 = 0.0772 | 734.56 | 1135 | 1.02
313.15 K, x1 = 0.1584 | 738.53 | 1143 | 1.1
313.15 K, x1 = 0.2439 | 742.51 | 1150.7 | 1.2
313.15 K, x1 = 0.334 | 746.52 | 1159 | 1.3
313.15 K, x1 = 0.4293 | 750.67 | 1167.6 | 1.43
313.15 K, x1 = 0.5302 | 754.66 | 1176.1 | 1.56
313.15 K, x1 = 0.6371 | 758.69 | 1184.8 | 1.72
313.15 K, x1 = 0.7506 | 762.9 | 1193.9 | 1.9
313.15 K, x1 = 0.8711 | 766.98 | 1202.8 | 2.12
313.15 K, x1 = 1 | – | – | 2.37
323.15 K, x1 = 0.0772 | 727.27 | 1097.7 | 0.882
323.15 K, x1 = 0.1584 | 731.3 | 1105.9 | 0.947
323.15 K, x1 = 0.2439 | 735.34 | 1113.7 | 1.03
323.15 K, x1 = 0.334 | 739.41 | 1122.2 | 1.11
323.15 K, x1 = 0.4293 | 743.63 | 1131 | 1.21
323.15 K, x1 = 0.5302 | 747.69 | 1139.7 | 1.32
323.15 K, x1 = 0.6371 | 751.78 | 1148.5 | 1.44
323.15 K, x1 = 0.7506 | 756.05 | 1157.7 | 1.59
323.15 K, x1 = 0.8711 | 760.19 | 1166.8 | 1.76
323.15 K, x1 = 1 | – | – | 1.95
333.15 K, x1 = 0.0772 | 719.94 | 1061.1 | 0.768
333.15 K, x1 = 0.1584 | 724.04 | 1069.5 | 0.822
333.15 K, x1 = 0.2439 | 728.14 | 1077.5 | 0.889
333.15 K, x1 = 0.334 | 732.28 | 1086.1 | 0.956
333.15 K, x1 = 0.4293 | 736.56 | 1095.1 | 1.04
333.15 K, x1 = 0.5302 | 740.68 | 1103.9 | 1.13
333.15 K, x1 = 0.6371 | 744.84 | 1112.9 | 1.23
333.15 K, x1 = 0.7506 | 749.18 | 1122.3 | 1.34
333.15 K, x1 = 0.8711 | 753.38 | 1131.6 | 1.48
333.15 K, x1 = 1 | – | – | 1.64
343.15 K, x1 = 0.0772 | 712.57 | 1025.2 | 0.676
343.15 K, x1 = 0.1584 | 716.73 | 1033.7 | 0.721
343.15 K, x1 = 0.2439 | 720.9 | 1041.9 | 0.778
343.15 K, x1 = 0.334 | 725.11 | 1050.7 | 0.834
343.15 K, x1 = 0.4293 | 729.46 | 1059.8 | 0.906
343.15 K, x1 = 0.5302 | 733.65 | 1068.8 | 0.975
343.15 K, x1 = 0.6371 | 737.87 | 1077.9 | 1.06
343.15 K, x1 = 0.7506 | 742.28 | 1087.5 | 1.15
343.15 K, x1 = 0.8711 | 746.55 | 1096.9 | 1.26
343.15 K, x1 = 1 | – | – | 1.39
353.15 K, x1 = 0.0772 | 705 | – | 0.6
353.15 K, x1 = 0.1584 | 709.3 | – | 0.638
353.15 K, x1 = 0.2439 | 713.4 | – | 0.687
353.15 K, x1 = 0.334 | 717.7 | – | 0.734
353.15 K, x1 = 0.4293 | 722.1 | – | 0.794
353.15 K, x1 = 0.5302 | 726.4 | – | 0.852
353.15 K, x1 = 0.6371 | 730.8 | – | 0.923
353.15 K, x1 = 0.7506 | 735.1 | – | 0.998
353.15 K, x1 = 0.8711 | 739.5 | – | 1.09
353.15 K, x1 = 1 | – | – | 1.19
363.15 K, x1 = 0.0772 | 697.5 | – | 0.538
363.15 K, x1 = 0.1584 | 701.8 | – | 0.57
363.15 K, x1 = 0.2439 | 706.1 | – | 0.613
363.15 K, x1 = 0.334 | 710.4 | – | 0.653
363.15 K, x1 = 0.4293 | 714.8 | – | 0.704
363.15 K, x1 = 0.5302 | 719.2 | – | 0.753
363.15 K, x1 = 0.6371 | 723.7 | – | 0.813
363.15 K, x1 = 0.7506 | 728.1 | – | 0.88
363.15 K, x1 = 0.8711 | 732.5 | – | 0.954
363.15 K, x1 = 1 | – | – | 1.04
373.15 K, x1 = 0.0772 | 689.9 | – | 0.487
373.15 K, x1 = 0.1584 | 694.2 | – | 0.515
373.15 K, x1 = 0.2439 | 698.6 | – | 0.553
373.15 K, x1 = 0.334 | 703.1 | – | 0.586
373.15 K, x1 = 0.4293 | 707.5 | – | 0.63
373.15 K, x1 = 0.5302 | 712.1 | – | 0.673
373.15 K, x1 = 0.6371 | 716.7 | – | 0.723
373.15 K, x1 = 0.7506 | 721.1 | – | 0.78
373.15 K, x1 = 0.8711 | 725.6 | – | 0.841
373.15 K, x1 = 1 | – | – | 0.913
